Holding throughout (format): biochemical
What all share (conditions): continuous assay 60 min, reaction initiated by adding enzyme to substrate-inhibitor mixture

One test addresses T1, mICE (Mus musculus, UniProt P29452).
T1 sequence (P29452 123-296 limits assumed): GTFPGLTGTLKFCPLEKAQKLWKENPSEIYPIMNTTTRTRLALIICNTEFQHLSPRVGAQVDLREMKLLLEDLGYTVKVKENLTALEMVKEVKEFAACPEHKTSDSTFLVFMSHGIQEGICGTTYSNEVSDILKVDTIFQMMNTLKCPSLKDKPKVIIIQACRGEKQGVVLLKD
T1 sequence (P29452 315-402 limits assumed): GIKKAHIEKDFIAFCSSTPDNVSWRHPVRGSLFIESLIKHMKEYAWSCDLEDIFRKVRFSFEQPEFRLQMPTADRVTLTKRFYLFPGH
The test can be described thus: Dissociation constant Ki and irreversible rate constant k3 for irreversible inhibitors (ICE).

The target of another test is T2, CPP32 (Homo sapiens, UniProt P42574).
T2 sequence (P42574 29-175 limits assumed): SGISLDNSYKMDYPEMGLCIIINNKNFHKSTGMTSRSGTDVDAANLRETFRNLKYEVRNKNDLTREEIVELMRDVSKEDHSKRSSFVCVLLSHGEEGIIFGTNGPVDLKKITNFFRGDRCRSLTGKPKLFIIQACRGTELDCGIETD
T2 sequence (P42574 176-277 limits assumed): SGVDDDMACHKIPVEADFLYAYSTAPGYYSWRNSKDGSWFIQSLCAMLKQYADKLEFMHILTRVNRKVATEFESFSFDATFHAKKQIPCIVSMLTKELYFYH
Put plainly: Dissociation constant Ki and irreversible rate constant k3 for irreversible inhibitors (CPP32).

A further test concerns the target MCH-5 (Homo sapiens, UniProt Q14790). Put plainly: Dissociation constant Ki and irreversible rate constant k3 for irreversible inhibitors (Mch5).
The target of another test is T3, MCH-2 (Homo sapiens, UniProt P55212).
T3 sequence (P55212 24-179 limits assumed): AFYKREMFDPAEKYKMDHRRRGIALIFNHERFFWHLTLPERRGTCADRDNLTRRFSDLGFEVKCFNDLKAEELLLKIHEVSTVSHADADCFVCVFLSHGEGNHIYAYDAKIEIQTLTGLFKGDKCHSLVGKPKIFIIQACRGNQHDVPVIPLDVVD
T3 sequence (P55212 194-293 limits assumed): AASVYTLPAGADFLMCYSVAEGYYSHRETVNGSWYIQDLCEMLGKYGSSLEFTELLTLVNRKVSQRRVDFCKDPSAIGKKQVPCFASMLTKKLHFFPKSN
The test can be described thus: Dissociation constant Ki and irreversible rate constant k3 for irreversible inhibitors (Mch2).

Sequence of MCH-5 (Q14790 217-374 limits assumed, species assumed): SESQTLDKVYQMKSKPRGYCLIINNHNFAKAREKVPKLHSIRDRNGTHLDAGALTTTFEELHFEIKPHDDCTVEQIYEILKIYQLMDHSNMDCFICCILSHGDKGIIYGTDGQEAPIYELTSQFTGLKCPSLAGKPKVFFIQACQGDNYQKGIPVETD
Sequence of MCH-5 (Q14790 385-479 limits assumed, species assumed): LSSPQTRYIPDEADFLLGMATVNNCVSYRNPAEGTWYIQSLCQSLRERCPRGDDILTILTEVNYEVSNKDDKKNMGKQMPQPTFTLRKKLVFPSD

On to `CC(C)[C@H](NC(=O)C(=O)Nc1ccccc1I)C(=O)N[C@@H](CC(=O)O)C(=O)COc1c(F)c(F)cc(F)c1F` [Example 107], for which, on mICE, the Ki amounted to 7 nM and the “mICE k3/Ki” value is reported as 1,260,000 moles^−1 seconds^−1. Also, on CPP32, the “CPP32 k3/Ki” value was 42,300 moles^−1 seconds^−1 and the Ki was found to be 510 nM. On MCH-5, the Ki was determined as 4 nM and the “MCH-5 k3/Ki” value is 1,026,000 moles^−1 seconds^−1. On MCH-2, the Ki was determined as 20 nM and the “MCH-2 k3/Ki” value is recorded as 137,000 moles^−1 seconds^−1.
Consider `CC(C)[C@H](NC(=O)C(=O)Nc1ccccc1C(F)(F)F)C(=O)N[C@@H](CC(=O)O)C(=O)COc1c(F)c(F)cc(F)c1F` [Example 92], for which, on mICE, the Ki was 11 nM and the “mICE k3/Ki” value is 1,044,000 moles^−1 seconds^−1. In addition, on CPP32, the “CPP32 k3/Ki” value was 57,400 moles^−1 seconds^−1 and the Ki amounted to 175 nM. At MCH-5, the Ki came out at 6 nM and the “MCH-5 k3/Ki” value is listed as 41,000 moles^−1 seconds^−1. Besides, at MCH-2, the Ki was 12 nM and the “MCH-2 k3/Ki” value is 261,000 moles^−1 seconds^−1.
As to `C[C@H](NC(=O)C(=O)NC1CCCCC1)C(=O)N[C@@H](CC(=O)O)C(=O)COC(=O)c1c(Cl)cccc1Cl` [Example 55], on mICE, the Ki turned out to be 6.1 nM and the “mICE k3/Ki” value is 2,020,000 moles^−1 seconds^−1. Further, at CPP32, the “CPP32 k3/Ki” value is recorded as 1,174,000 moles^−1 seconds^−1 and the Ki is 13 nM. Besides, on MCH-5, the Ki was determined as 2.6 nM and the “MCH-5 k3/Ki” value is 2,140,000 moles^−1 seconds^−1. For the same compound, at MCH-2, the Ki stood at 6.3 nM and the “MCH-2 k3/Ki” value is recorded as 655,000 moles^−1 seconds^−1.
`C[C@H](NC(=O)C(=O)Nc1ccccc1F)C(=O)N[C@@H](CC(=O)O)C(=O)COc1c(F)c(F)cc(F)c1F` [Example 66]: at mICE, the Ki came to 25 nM and the “mICE k3/Ki” value is on record as 339,000 moles^−1 seconds^−1. Also, on CPP32, the “CPP32 k3/Ki” value was 478,000 moles^−1 seconds^−1 and the Ki is 28 nM. Besides, at MCH-5, the Ki is 13 nM and the “MCH-5 k3/Ki” value is 170,000 moles^−1 seconds^−1. Moreover, on MCH-2, the Ki came out at 19 nM and the “MCH-2 k3/Ki” value is listed as 212,000 moles^−1 seconds^−1.
Take `C[C@H](NC(=O)C(=O)Nc1ccc(F)cc1)C(=O)N[C@@H](CC(=O)O)C(=O)COC(=O)c1c(Cl)cccc1Cl` [Example 44]: on mICE, the Ki came out at 1450 nM and the “mICE k3/Ki” value is given as 11,700 moles^−1 seconds^−1. Besides, on CPP32, the “CPP32 k3/Ki” value is listed as 22,700 moles^−1 seconds^−1 and the Ki was 1280 nM. In addition, on MCH-5, the Ki was found to be 462 nM and the “MCH-5 k3/Ki” value is given as 18,700 moles^−1 seconds^−1. In addition, on MCH-2, the Ki came out at 142 nM and the “MCH-2 k3/Ki” value is on record as 18,600 moles^−1 seconds^−1.
Consider `C[C@H](NC(=O)C(=O)NCc1cccc2ccccc12)C(=O)N[C@@H](CC(=O)O)C(=O)COC(=O)c1c(Cl)cccc1Cl` [Example 34], for which, at mICE, the Ki is 9.9 nM and the “mICE k3/Ki” value was 1,160,000 moles^−1 seconds^−1. Also, on CPP32, the “CPP32 k3/Ki” value is listed as 187,000 moles^−1 seconds^−1 and the Ki was determined as 43 nM. In addition, on MCH-5, the Ki stood at 4.2 nM and the “MCH-5 k3/Ki” value is reported as 936,000 moles^−1 seconds^−1. Besides, at MCH-2, the Ki was 11 nM and the “MCH-2 k3/Ki” value was 214,000 moles^−1 seconds^−1.
In the case of `C[C@H](NC(=O)C(=O)Nc1cccc2c1CCCC2)C(=O)N[C@@H](CC(=O)O)C(=O)COc1c(F)c(F)cc(F)c1F` [Example 50], on mICE, the Ki worked out at 640 nM and the “mICE k3/Ki” value is listed as 22,000 moles^−1 seconds^−1. At CPP32, the “CPP32 k3/Ki” value is on record as 118,000 moles^−1 seconds^−1 and the Ki came out at 129 nM. At MCH-5, the Ki is 74 nM and the “MCH-5 k3/Ki” value was 46,200 moles^−1 seconds^−1. Moreover, on MCH-2, the Ki was determined as 72 nM and the “MCH-2 k3/Ki” value is reported as 64,100 moles^−1 seconds^−1.
As to `C[C@H](NC(=O)C(=O)Nc1cccc2c1CCCC2)C(=O)N[C@@H](CC(=O)O)C(=O)COC(=O)c1c(Cl)cccc1Cl` [Example 49], at mICE, the Ki came out at 1.4 nM and the “mICE k3/Ki” value was 17,600,000 moles^−1 seconds^−1. For the same compound, on CPP32, the “CPP32 k3/Ki” value was 260,000 moles^−1 seconds^−1 and the Ki worked out at 43 nM. In addition, on MCH-5, the Ki came to 4 nM and the “MCH-5 k3/Ki” value was 1,920,000 moles^−1 seconds^−1. On MCH-2, the Ki was 10 nM and the “MCH-2 k3/Ki” value is 264,000 moles^−1 seconds^−1.
On to `CC(C)[C@H](NC(=O)C(=O)NCc1ccccc1)C(=O)N[C@@H](CC(=O)O)C(=O)COc1c(F)c(F)cc(F)c1F` [Example 79], for which, on mICE, the Ki is 6 nM and the “mICE k3/Ki” value is given as 1,800,000 moles^−1 seconds^−1. Besides, on CPP32, the “CPP32 k3/Ki” value is recorded as 21,000 moles^−1 seconds^−1 and the Ki turned out to be 405 nM. For the same compound, at MCH-5, the Ki is 5 nM and the “MCH-5 k3/Ki” value was 472,000 moles^−1 seconds^−1. At MCH-2, the Ki stood at 125 nM and the “MCH-2 k3/Ki” value was 16,600 moles^−1 seconds^−1.
`CC(C)[C@H](NC(=O)C(=O)Nc1ccccn1)C(=O)N[C@@H](CC(=O)O)C(=O)COc1c(F)c(F)cc(F)c1F` [Example 100]: on mICE, the Ki stood at 206 nM and the “mICE k3/Ki” value is 36,000 moles^−1 seconds^−1. Further, on CPP32, the “CPP32 k3/Ki” value is on record as 9,850 moles^−1 seconds^−1 and the Ki was 2250 nM. In addition, at MCH-5, the Ki worked out at 157 nM and the “MCH-5 k3/Ki” value is reported as 19,500 moles^−1 seconds^−1. Further, on MCH-2, the Ki was found to be 188 nM and the “MCH-2 k3/Ki” value is given as 11,600 moles^−1 seconds^−1.
With `C[C@H](NC(=O)C(=O)Nc1ccccc1C(C)(C)C)C(=O)N[C@@H](CC(=O)O)C(=O)COP(=O)(c1ccccc1)c1ccccc1` [Example 32], on mICE, the Ki was found to be 98 nM and the “mICE k3/Ki” value is 159,000 moles^−1 seconds^−1. At CPP32, the “CPP32 k3/Ki” value was 327,000 moles^−1 seconds^−1 and the Ki turned out to be 34 nM. On MCH-5, the Ki was determined as 10 nM and the “MCH-5 k3/Ki” value is reported as 282,000 moles^−1 seconds^−1. At MCH-2, the Ki was 16 nM and the “MCH-2 k3/Ki” value is on record as 275,000 moles^−1 seconds^−1.
In the case of `C[C@H](NC(=O)C(=O)Nc1ccccc1I)C(=O)N[C@@H](CC(=O)O)C(=O)COP(=O)(c1ccccc1)c1ccccc1` [Example 74], on mICE, the Ki is 303 nM and the “mICE k3/Ki” value is 36,300 moles^−1 seconds^−1. For the same compound, at CPP32, the “CPP32 k3/Ki” value was 78,300 moles^−1 seconds^−1 and the Ki came to 161 nM. On MCH-5, the Ki was 70 nM and the “MCH-5 k3/Ki” value is 46,300 moles^−1 seconds^−1. At MCH-2, the Ki amounted to 78 nM and the “MCH-2 k3/Ki” value is on record as 66,200 moles^−1 seconds^−1.

The record behind these values is patent US7183260B2, “C-terminal modified oxamyl dipeptides as inhibitors of the ICE/ced-3 family of cysteine proteases” (Idun Pharmaceuticals, Inc., priority 1998, dated 2007).
